Where a name gives a salt, the structure may show the parent alone. Read-outs that look alike come from different tables or passages of the source.
Legend:
[1] = tested on: antigen (ovalalbumin) challenged guinea pigs; test: Guinea pig early phase anaphylactic response test (pulmonary dynamic compliance); assay type: in vivo, male Hartley guinea pigs; conditions: inhalation
Protocol: Pat. […] Pat. […] Typical inhalation exposure systems were comprised of an aerosol generator, e.g., an MDI, a 150 ml aerosol expansion chamber, and a trachea cannula. Each guinea pig received 4 actuations containing 32 ug drug/actuation. The guinea pigs were antigen (ovalalbumin) challenged at varied times and pulmonary dynamic compliance was tested using a Buxco pulmonary mechanics analyzer (Buxco Electronics, Sharon Conn.) according to the method of Amdur and Mead (The American Journal of Physiology, Vol. 92, pp. 364-368 (1958)).

[2] = Glass transition temperature (Tg) by modulated DSC; assay type: physicochemical; conditions: PLA/Drug mole/mole ratio 0 (drug alone)
Protocol: (§1) Thermal properties (glass transition, melting, and degradation points; Tg, Tm, Tdeg) were determined utilizing a modulated differential scanning calorimeter (DSC) TA Instruments, New Castle, Del. A linear heating rate of 5° C./minute was applied, with a perturbation amplitude of ±1° C. every 60 seconds. […] The glass transition temperatures (Tg) reported were taken at the midpoint in the change in heat capacity over the step transition, and were evaluated using the reversing signal curve.
It will also be recognized that other biologically acceptable molecules (e.g., excipients) which are not the active agent, may be added to improve the matrix material's properties.

[3] = tested on: tumor necrosis factor (TNF); test: TNF levels in lung lavage and serum after inhalation of IMQ MDI formulations; assay type: in vivo, mouse; conditions: mice
Protocol: Typically, the animals were exposed to 20 actuations per minute for 25 minutes of an MDI generated 2 micron average MMAD aerosol. Lung lavage and bleeding of the exposed mice, were performed by standard methods known to those skilled in the art and tumor necrosis factor (TNF) analyses were performed by an ELISA method specific for TNF in the mouse (Genzyme Immunobiologicals, Cambridge, Mass.). TNF is a marker for this drug's activity. Pulmonary therapy application of IMQ prefers drug activity localized in the lung. Therefore, it was desirable to maintain high levels of drug in the lung and minimize systemic drug. However, this formulation and method could also clearly be used to provide long term release of IMQ or analogous compounds for systemic applications. The lavage numbers are measurements of TNF levels in the lung while the serum levels measure systemic TNF levels.

[4] = Degradation temperature by modulated DSC (thermal stability)
Protocol: as §1
The salts were prepared by mixing suitable solutions (e.g., acetone, chloroform, methanol) of the drug and PLA in the desired ratio, followed by evaporation and extensive drying under high vacuum to remove all traces of solvent. […] Bioavailability frequently correlates with the water solubility of the drug-complex. The water solubility of the PHAs is dependent on the molecular weight and the nature of the end groups.
The molecular weight of the acylated polymer necessary to provide an insoluble salt is dependent both on the nature of the drug and the end-group used. It will be recognized that the characteristics (MW, distribution, chemical nature, endgroups, etc.) of the polymer counter-ion will be important to the ultimate pharmacokinetics of the drug.

[5] = PLA/Drug molar ratio 0 (drug alone)

For `CCC(CC)N(O)C(=O)Nc1ccccc1` [Example 5LO], which “Percent Inhibition of Bronchoconstriction” value (“Percent Inhibition” for short) ([1]; challenge 15 minutes after dosing) is on record?
The value was 67%.

And the “Percent Inhibition” value ([1]; challenge 30 minutes after dosing)?
Its value is 48%.

And the “Percent Inhibition” value ([1]; challenge 60 minutes after dosing)?
The value was 4%.

For `CC(C)(C)NCC(O)c1ccc(O)c(CO)c1` (stereo not drawn) [Albuterol base], which Tg [2] is on record?
Its Tg is 48.9 °C.

With `CN(C)[C@@H]1C(O)=C(C(N)=O)C(=O)[C@@]2(O)C(O)=C3C(=O)c4c(O)cccc4[C@@](C)(O)[C@H]3C[C@@H]12` [Tetracycline HCl] as the molecule, how does the Tg [2] read?
Its Tg is 50.5 °C.

Which “TNF level, Lavage” value ([3]; 0 hours after dosing) does the source give for `Cc1nc2c(N)nc3ccccc3c2n1CC(C)(C)O` [IMQ alone] here?
Its value is 40 pg/mL.

And the “TNF level, Serum” value ([3]; 0 hours after dosing)?
Its value is 13 pg/mL.

What about the “TNF level, Lavage” value ([3]; 1 hour after dosing) of the same molecule?
The value was 105 pg/mL.

What about the “TNF level, Serum” value ([3]; 1 hour after dosing) of the same molecule?
The value was 6 pg/mL.

What about the “TNF level, Lavage” value ([3]; 2 hours after dosing) of the same molecule?
Its value is 213 pg/mL.

And the “TNF level, Serum” value ([3]; 2 hours after dosing)?
Its value is 193 pg/mL.

And the “TNF level, Lavage” value ([3]; 4 hours after dosing)?
The value was 144 pg/mL.

What about the “TNF level, Serum” value ([3]; 4 hours after dosing) of the same molecule?
Its value is 577 pg/mL.

For `CN(C)[C@@H]1C(O)=C(C(N)=O)C(=O)[C@@]2(O)C(O)=C3C(=O)c4c(O)cccc4[C@@](C)(O)[C@H]3C[C@@H]12` [Tetracycline], which “Degradation Temperature” value [4, 5] is on record?
The value was 179 °C.

Which Tg [2] does the source give for Albuterol sulfate here?
Its Tg is 49 °C.

For `CCN(CC)CC(=O)Nc1c(C)cccc1C` [Lidocaine HCl], which Tg ([2]; HCl) is on record?
Its Tg is 30.7 °C.

What does the source list for `CCN(CC)CC(=O)Nc1c(C)cccc1C` [Lidocaine]?
Tg [2]: none; Degradation Temperature [4, 5]: 159 °C

Which Tg [2] does the source give for `[H]/N=C(\N/C(=N/[H])NCCCCCCNC(=N)NC(=N)Nc1ccc(Cl)cc1)Nc1ccc(Cl)cc1` [Chlorhexidine base] here?
The Tg was 38.5 °C.

And the “Degradation Temperature” value [4, 5]?
Its value is over 225 °C.

With acetyl-poly (L-lactic acid) [Example 7] as the molecule, how does the “Degradation Temperature” value [4] read?
The value was over 225 °C.

— patent US7687054B2, “Biocompatible compounds for sustained release pharmaceutical drug delivery systems” (3M Innovative Properties Company, priority 1997, dated 2010)
